According to article PMC7827406, “Structure–Activity Relationship (SAR) Study of Spautin-1 to Entail the Discovery of Novel NEK4 Inhibitors” (International Journal of Molecular Sciences, 2021):
Like-named read-outs stand apart in the source and are kept apart here.

Experiments:
Assay in all cases: biochemical
Parameters in all cases: Eurofins KinaseProfiler full panel at Km ATP, residual kinase activity (%) relative to DMSO
CDK3/cyclinE(h) = CDK3/cyclinE(h) (Homo sapiens, UniProt Q00526)
Outline: (§1)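 Compounds screened at 10 µM in radiometric kinase activity assays at Km ATP, reported as remaining kinase activity (%). A KINOMEscan competition-binding screen at 10 µM measured DNA-tagged kinase retained on immobilized active-site ligand by qPCR.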

NEK4 = NEK4 (Homo sapiens, UniProt P51957)
NEK4, sequence (P51957 whole entry): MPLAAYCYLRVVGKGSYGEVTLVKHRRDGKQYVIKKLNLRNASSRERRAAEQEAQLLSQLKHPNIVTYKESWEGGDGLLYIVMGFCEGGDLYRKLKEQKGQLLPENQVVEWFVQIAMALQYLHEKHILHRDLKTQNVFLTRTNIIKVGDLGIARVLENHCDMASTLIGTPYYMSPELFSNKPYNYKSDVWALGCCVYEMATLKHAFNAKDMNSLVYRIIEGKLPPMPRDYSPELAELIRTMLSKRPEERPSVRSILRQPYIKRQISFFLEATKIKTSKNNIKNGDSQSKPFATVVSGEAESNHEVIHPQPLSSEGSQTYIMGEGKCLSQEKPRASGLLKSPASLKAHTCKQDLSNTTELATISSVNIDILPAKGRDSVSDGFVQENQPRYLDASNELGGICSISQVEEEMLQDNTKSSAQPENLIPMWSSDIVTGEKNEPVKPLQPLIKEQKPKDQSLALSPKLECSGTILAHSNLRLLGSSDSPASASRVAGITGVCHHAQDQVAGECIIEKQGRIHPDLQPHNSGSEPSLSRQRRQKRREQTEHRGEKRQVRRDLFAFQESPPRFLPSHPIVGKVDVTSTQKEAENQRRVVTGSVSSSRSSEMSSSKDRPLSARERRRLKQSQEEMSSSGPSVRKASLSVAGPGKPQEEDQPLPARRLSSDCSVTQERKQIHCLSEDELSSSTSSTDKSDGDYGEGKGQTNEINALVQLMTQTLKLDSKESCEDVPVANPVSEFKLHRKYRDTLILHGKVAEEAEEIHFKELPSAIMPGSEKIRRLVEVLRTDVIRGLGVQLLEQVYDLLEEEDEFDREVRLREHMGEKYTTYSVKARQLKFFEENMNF
Outline: as §1

Flt4(h) = Flt4(h) (Homo sapiens, UniProt P35916)
Flt4(h), sequence (P35916 whole entry): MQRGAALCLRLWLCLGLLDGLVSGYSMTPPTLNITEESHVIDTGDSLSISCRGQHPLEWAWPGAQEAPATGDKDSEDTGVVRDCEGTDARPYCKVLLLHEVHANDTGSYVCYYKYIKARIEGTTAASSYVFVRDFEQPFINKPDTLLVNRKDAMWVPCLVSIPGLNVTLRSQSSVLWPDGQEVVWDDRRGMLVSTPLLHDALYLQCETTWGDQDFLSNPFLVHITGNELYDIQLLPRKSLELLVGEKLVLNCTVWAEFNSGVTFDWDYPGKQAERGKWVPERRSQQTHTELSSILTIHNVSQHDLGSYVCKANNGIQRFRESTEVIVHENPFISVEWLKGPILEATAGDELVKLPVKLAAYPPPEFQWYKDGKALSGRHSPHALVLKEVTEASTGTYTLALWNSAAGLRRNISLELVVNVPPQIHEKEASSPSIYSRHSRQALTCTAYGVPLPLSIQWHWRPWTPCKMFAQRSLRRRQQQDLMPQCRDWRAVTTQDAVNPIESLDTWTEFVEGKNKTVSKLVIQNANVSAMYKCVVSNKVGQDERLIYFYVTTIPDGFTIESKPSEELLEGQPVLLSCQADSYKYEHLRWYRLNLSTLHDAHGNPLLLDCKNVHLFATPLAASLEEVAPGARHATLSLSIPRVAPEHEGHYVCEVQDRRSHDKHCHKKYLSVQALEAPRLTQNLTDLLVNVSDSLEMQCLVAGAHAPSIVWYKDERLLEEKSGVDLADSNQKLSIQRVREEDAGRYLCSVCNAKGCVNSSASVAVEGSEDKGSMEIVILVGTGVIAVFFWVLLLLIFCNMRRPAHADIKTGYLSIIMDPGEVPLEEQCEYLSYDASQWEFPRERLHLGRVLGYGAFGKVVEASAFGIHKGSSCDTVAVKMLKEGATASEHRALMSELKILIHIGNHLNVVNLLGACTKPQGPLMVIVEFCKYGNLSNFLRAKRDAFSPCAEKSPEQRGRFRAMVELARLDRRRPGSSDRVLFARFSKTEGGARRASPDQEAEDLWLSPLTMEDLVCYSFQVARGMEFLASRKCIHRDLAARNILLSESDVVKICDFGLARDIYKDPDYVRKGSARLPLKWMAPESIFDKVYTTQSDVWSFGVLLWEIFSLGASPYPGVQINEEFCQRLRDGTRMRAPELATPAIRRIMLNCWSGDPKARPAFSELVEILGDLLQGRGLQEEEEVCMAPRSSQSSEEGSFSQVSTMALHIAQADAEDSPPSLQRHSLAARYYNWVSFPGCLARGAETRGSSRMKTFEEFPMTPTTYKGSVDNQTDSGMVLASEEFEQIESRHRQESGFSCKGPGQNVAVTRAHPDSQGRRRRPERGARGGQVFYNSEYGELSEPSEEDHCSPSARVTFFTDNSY
Outline: as §1

ErbB2(h) = ErbB2(h) (Homo sapiens, UniProt P04626)
Outline: as §1

Tec(h) activated = molecular target: T1, Tec(h) activated (Homo sapiens, UniProt P42680)
T1 sequence (P42680 1-631): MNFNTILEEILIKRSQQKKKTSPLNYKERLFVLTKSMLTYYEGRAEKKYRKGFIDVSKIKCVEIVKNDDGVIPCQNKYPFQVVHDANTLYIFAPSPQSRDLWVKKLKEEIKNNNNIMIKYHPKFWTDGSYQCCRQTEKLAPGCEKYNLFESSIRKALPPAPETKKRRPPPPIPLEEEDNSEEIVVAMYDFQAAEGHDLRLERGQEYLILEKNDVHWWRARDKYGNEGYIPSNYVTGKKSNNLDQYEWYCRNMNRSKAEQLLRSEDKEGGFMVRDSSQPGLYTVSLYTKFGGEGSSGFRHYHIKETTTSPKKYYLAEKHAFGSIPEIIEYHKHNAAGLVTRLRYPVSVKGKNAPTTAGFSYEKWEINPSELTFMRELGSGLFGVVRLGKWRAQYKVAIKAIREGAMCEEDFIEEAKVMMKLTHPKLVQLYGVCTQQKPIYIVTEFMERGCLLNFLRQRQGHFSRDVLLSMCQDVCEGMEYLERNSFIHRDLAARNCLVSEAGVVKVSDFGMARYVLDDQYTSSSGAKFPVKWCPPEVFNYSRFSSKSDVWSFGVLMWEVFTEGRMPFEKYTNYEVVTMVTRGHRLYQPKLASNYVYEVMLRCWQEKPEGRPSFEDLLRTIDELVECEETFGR
Outline: as §1

[1] = molecular target: T2, PI3 Kinase (p110d/p85a)(h) (Homo sapiens, UniProt O00329)
T2 construct: gene PIK3CD
T2 sequence (O00329 whole entry): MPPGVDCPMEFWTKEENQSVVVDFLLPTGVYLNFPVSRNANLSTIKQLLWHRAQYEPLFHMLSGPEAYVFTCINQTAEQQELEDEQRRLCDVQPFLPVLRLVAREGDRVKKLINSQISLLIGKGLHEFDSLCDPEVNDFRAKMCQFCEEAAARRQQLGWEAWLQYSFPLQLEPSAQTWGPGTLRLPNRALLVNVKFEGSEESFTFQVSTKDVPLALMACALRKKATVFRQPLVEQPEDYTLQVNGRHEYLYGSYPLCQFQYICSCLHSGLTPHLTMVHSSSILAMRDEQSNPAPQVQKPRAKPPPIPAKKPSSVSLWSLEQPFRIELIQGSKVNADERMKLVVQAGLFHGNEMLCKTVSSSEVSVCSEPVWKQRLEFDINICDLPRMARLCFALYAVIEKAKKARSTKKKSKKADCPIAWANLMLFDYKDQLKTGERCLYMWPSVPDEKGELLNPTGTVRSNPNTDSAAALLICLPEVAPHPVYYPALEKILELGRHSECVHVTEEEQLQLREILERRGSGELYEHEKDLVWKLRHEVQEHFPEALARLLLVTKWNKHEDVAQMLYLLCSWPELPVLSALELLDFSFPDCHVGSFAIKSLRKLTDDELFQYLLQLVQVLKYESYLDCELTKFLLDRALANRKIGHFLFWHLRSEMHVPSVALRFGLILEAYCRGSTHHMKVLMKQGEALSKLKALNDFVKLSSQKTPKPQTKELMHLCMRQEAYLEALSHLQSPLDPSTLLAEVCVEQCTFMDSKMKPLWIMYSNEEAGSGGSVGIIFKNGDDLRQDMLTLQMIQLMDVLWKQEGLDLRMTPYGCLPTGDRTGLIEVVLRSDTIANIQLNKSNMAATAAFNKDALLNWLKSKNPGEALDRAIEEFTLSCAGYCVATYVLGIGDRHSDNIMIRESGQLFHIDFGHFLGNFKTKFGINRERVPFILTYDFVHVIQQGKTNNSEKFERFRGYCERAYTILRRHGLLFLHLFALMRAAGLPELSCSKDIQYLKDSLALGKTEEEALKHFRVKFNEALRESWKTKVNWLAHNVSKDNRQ
T2 sequence (P27986 whole entry partner): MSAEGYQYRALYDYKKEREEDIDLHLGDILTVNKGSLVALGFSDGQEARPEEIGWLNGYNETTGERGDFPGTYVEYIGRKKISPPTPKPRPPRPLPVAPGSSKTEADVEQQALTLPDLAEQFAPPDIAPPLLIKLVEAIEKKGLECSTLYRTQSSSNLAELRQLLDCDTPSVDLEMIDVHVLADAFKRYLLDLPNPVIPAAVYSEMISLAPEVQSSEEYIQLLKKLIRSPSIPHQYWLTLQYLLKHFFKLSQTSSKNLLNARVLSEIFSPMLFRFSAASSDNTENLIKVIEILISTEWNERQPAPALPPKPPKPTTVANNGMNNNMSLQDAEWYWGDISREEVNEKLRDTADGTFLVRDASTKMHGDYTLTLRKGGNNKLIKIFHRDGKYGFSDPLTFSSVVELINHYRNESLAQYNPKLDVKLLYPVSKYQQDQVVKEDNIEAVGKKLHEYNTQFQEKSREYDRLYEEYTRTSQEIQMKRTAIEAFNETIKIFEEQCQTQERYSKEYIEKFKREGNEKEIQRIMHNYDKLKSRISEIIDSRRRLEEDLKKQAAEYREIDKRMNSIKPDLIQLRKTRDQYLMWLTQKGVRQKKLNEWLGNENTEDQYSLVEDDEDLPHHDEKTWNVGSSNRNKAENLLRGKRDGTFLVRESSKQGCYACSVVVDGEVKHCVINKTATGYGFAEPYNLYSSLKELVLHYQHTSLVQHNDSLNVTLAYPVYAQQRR
Outline: as §1

CaMKIß(h) = molecular target: T3, CaMKIß(h) (Homo sapiens, UniProt Q6P2M8)
T3 construct: gene PNCK
T3 sequence (Q6P2M8 whole entry): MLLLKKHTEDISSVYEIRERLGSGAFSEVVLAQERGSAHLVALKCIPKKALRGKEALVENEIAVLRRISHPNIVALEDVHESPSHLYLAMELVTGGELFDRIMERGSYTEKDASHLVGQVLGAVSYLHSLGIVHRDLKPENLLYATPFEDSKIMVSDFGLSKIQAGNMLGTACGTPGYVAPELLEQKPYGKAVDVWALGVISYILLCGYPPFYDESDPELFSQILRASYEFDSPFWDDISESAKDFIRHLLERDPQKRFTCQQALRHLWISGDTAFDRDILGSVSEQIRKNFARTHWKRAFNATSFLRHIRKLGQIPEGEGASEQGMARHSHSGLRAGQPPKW
Outline: as §1

WNK3(h) = WNK3(h) (Homo sapiens, UniProt Q9BYP7)
Outline: as §1

VRK1(h) = molecular target: T4, VRK1(h) (Homo sapiens, UniProt Q99986)
T4 sequence (Q99986 1-396): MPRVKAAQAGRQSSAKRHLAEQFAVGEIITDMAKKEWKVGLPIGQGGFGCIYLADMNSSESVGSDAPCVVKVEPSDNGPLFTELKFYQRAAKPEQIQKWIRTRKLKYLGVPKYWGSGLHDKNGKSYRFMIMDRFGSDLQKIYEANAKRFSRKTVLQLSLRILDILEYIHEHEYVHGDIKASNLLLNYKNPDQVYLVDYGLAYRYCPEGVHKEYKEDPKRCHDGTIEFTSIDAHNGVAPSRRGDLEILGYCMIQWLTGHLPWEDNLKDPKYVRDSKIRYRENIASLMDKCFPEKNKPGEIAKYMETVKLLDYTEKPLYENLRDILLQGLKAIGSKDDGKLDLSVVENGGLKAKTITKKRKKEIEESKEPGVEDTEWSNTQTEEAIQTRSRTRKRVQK
Outline: as §1

[2] = read-out: Residual activity (%) Spautin-1 5aa
[3] = read-out: Residual activity (%) 5as
[4] = read-out: Residual activity (%) 5at
[5] = read-out: Residual activity (%) 5ay

CDK3/cyclinE(h), sequence (Q00526 whole entry): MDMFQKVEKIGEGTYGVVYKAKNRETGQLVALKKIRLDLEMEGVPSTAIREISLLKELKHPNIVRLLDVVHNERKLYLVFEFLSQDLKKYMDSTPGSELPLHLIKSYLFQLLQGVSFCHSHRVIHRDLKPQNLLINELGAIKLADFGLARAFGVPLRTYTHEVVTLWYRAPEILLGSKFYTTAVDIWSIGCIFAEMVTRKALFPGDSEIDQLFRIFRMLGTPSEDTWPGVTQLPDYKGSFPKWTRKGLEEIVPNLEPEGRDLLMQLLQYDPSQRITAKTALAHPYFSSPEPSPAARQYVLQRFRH
CDK3/cyclinE(h), sequence (P24864 whole entry partner): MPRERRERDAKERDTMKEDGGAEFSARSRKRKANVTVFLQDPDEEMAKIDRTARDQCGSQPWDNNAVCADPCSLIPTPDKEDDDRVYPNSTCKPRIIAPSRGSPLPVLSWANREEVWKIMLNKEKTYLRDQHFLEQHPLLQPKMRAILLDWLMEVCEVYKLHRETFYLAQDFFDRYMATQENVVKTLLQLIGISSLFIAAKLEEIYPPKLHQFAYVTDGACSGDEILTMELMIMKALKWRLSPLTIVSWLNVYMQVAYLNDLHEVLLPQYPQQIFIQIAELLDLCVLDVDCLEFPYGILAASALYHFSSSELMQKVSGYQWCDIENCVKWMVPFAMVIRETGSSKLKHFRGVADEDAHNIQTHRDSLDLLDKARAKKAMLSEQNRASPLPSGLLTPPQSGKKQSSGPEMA

**Q.** For Fc1ccc(CNc2ncnc3ccc(F)cc23)cc1 [5aa, 6-Fluoro-N-(4-fluorobenzyl)-4-Quinazolinamine], which remaining activity at 10 µM (CDK3/cyclinE(h); [2]) is on record?
**A.** 93%

**Q.** And the remaining activity at 10 µM (NEK4; [2])?
**A.** 71%

**Q.** What about the remaining activity at 10 µM (Flt4(h); [2]) of the same compound?
**A.** 92%

**Q.** What about the remaining activity at 10 µM (ErbB2(h); [2]) of the same compound?
**A.** 74%

**Q.** What about the remaining activity at 10 µM (Tec(h) activated; [2]) of the same compound?
**A.** 78%

**Q.** And the remaining activity at 10 µM [1, 2]?
**A.** 93%

**Q.** And the remaining activity at 10 µM (CaMKIß(h); [2])?
**A.** 85%

**Q.** And the remaining activity at 10 µM (WNK3(h); [2])?
**A.** 90%

**Q.** What about the remaining activity at 10 µM (VRK1(h); [2]) of the same compound?
**A.** 94%

**Q.** With Fc1ccc(CCNc2ncnc3ccc(F)cc23)cc1 [5as, 6-Fluoro-N-[2-(4-Fluorophenyl)Ethyl]-4-Quinazolinamine] as the compound, how does the remaining activity at 10 µM (CDK3/cyclinE(h); [3]) read?
**A.** 105%

**Q.** What about the remaining activity at 10 µM (Flt4(h); [3]) of the same compound?
**A.** 81%

**Q.** And the remaining activity at 10 µM (ErbB2(h); [3])?
**A.** 79%

**Q.** What about the remaining activity at 10 µM (Tec(h) activated; [3]) of the same compound?
**A.** 100%

**Q.** What about the remaining activity at 10 µM [1, 3] of the same compound?
**A.** 84%

**Q.** And the remaining activity at 10 µM (CaMKIß(h); [3])?
**A.** 84%

**Q.** What about the remaining activity at 10 µM (WNK3(h); [3]) of the same compound?
**A.** 98%

**Q.** And the remaining activity at 10 µM (VRK1(h); [3])?
**A.** 82%

**Q.** Which results are given for Fc1ccc2ncnc(NCCc3ccc(Cl)cc3)c2c1 [5at, N-[2-(4-Chlorophenyl)Ethyl]-6-Fluoro-4-Quinazolinamine]?
**A.** remaining activity at 10 µM (CDK3/cyclinE(h); [4]): 107%; remaining activity at 10 µM (NEK4; [4]): 12%; remaining activity at 10 µM (Flt4(h); [4]): 90%; remaining activity at 10 µM (ErbB2(h); [4]): 65%; remaining activity at 10 µM (Tec(h) activated; [4]): 86%; remaining activity at 10 µM [1, 4]: 80%; remaining activity at 10 µM (CaMKIß(h); [4]): 81%; remaining activity at 10 µM (WNK3(h); [4]): 86%; remaining activity at 10 µM (VRK1(h); [4]): 79%

**Q.** COc1ccc2ncnc(Nc3cccc(F)c3)c2c1 [5ay, N-(3-Fluorophenyl)-6-Methoxy-4-Quinazolinamine] was tested. Which remaining activity at 10 µM (CDK3/cyclinE(h); [5]) did it give?
**A.** 101%

**Q.** What about the remaining activity at 10 µM (NEK4; [5]) of the same compound?
**A.** 30%

**Q.** What about the remaining activity at 10 µM (Flt4(h); [5]) of the same compound?
**A.** 66%

**Q.** And the remaining activity at 10 µM (ErbB2(h); [5])?
**A.** 20%

**Q.** And the remaining activity at 10 µM (Tec(h) activated; [5])?
**A.** 76%

**Q.** What about the remaining activity at 10 µM [1, 5] of the same compound?
**A.** 96%

**Q.** And the remaining activity at 10 µM (CaMKIß(h); [5])?
**A.** 92%

**Q.** And the remaining activity at 10 µM (WNK3(h); [5])?
**A.** 104%

**Q.** And the remaining activity at 10 µM (VRK1(h); [5])?
**A.** 89%
